# Assays:
# [1] = target: T1, Adrenergic receptor alpha-1 (Rattus norvegicus, UniProt P15823+P23944+P43140); assay: The compound was tested for its binding affinity towards Alpha-1 adrenergic receptor by displacing [3H]WB-4101 radioligand in rat cerebral cortex; type: tissue-based
# T1 sequence (P15823 whole entry): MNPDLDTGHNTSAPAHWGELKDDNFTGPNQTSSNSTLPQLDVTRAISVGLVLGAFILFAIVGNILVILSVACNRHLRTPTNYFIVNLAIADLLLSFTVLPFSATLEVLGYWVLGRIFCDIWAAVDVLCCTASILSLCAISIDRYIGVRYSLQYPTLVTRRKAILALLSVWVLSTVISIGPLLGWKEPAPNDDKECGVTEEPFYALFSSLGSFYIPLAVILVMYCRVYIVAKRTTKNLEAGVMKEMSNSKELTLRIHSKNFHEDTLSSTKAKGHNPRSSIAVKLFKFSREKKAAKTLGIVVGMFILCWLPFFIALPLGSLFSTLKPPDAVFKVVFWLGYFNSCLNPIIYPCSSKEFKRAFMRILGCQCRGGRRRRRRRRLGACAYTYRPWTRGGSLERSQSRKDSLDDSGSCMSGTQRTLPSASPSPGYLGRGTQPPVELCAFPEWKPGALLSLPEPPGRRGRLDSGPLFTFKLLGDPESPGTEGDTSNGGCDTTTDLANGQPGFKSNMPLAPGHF
# T1 sequence (P23944 whole entry): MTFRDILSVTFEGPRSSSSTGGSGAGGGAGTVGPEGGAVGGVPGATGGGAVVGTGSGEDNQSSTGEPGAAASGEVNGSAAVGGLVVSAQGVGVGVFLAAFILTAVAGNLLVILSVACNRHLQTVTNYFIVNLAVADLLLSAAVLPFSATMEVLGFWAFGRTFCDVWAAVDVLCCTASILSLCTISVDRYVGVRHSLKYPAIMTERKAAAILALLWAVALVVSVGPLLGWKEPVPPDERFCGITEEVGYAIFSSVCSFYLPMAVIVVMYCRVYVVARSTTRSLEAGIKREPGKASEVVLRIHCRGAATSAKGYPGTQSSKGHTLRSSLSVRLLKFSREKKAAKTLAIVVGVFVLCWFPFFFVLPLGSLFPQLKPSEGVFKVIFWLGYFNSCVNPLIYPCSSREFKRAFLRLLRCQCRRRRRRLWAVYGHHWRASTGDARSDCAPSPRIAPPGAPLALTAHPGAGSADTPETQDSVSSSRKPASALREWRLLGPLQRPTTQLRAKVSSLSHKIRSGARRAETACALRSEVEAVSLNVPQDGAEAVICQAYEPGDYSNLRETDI
# T1 sequence (P43140 whole entry): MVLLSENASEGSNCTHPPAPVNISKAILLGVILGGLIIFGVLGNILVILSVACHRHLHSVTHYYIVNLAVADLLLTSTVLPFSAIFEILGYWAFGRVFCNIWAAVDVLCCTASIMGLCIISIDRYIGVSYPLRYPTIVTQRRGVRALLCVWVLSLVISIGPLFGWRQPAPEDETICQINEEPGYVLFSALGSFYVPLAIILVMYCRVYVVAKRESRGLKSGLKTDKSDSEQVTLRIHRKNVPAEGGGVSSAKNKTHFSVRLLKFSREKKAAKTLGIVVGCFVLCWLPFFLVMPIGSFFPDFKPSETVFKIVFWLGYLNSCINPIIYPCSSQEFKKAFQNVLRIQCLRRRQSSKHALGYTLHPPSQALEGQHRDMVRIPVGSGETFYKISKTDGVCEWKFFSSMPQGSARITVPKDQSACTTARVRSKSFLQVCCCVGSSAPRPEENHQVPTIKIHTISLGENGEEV
# [2] = organism: Rattus norvegicus; assay: (§1) ED50 value for catalepsy indicates the dose required to produce a 50% of maximum catalepsy score; type: functional
# [3] = tested on: Rattus norvegicus; assay: Antipsychotic activity at a dose 10 times the ED50 value for CAR block for production of catalepsy in the rat (following i.p. dosing); type: functional; conditions: ip
# [4] = tested on: Rattus norvegicus; assay: The percentage production of catalepsy in rat at a dose of 25 mg/kg ip.; type: functional
# [5] = target: T2, 5-hydroxytryptamine receptor 1A (Rattus norvegicus, UniProt P19327); assay: Binding affinity towards 5-hydroxytryptamine 1A receptor by displacing [3H]WB-4101 from rat hippocampus; type: tissue-based
# T2 sequence (P19327 whole entry): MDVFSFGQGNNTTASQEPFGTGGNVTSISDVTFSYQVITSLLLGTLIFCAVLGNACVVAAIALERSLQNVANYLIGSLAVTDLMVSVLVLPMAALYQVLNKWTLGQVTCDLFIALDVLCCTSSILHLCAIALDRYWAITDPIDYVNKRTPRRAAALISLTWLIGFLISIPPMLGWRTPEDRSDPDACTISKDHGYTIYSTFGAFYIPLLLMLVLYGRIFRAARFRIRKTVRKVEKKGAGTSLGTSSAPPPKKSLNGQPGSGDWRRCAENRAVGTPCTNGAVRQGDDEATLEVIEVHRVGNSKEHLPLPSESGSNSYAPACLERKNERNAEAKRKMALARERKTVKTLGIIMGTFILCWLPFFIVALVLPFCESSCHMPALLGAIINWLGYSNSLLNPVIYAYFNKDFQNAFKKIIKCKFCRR
# [6] = target: T3, Serotonin 1 (5-HT1) receptor (Rattus norvegicus, UniProt P28564+P30940+P19327+P28565); assay: The compound was tested for its binding affinity towards 5-hydroxytryptamine 1 receptor by displacing [3H]5-HT radioligand in rat cerebral cortex; type: tissue-based
# [7] = tested on: Rattus norvegicus; assay: The compound was measured at a dose 10 times the ED50 value for CAR block for production of catalepsy in the rat via oral administration.; type: functional; conditions: Rattus norvegicus, po; read-out: ED50
# [8] = target: Serotonin 2 (5-HT2) receptor (Rattus norvegicus, UniProt P30994+P08909+P14842); assay: The compound was tested for its binding affinity towards 5-hydroxytryptamine 2 receptor by displacing [3H]ketanserin radioligand in rat cerebral cortex; type: tissue-based
# [9] = tested on: Rattus norvegicus; assay: The percentage production of catalepsy in rat at a dose of 40 mg/kg ip.; type: functional
# [10] = target: 5-hydroxytryptamine receptor 1B (Rattus norvegicus, UniProt P28564); assay: The compound was tested for its binding affinity towards 5-hydroxytryptamine 1B receptor by displacing [3H]serotonin radioligand in rat cerebral cortex; type: tissue-based
# Sequence of 5-hydroxytryptamine receptor 1B (P28564 whole entry): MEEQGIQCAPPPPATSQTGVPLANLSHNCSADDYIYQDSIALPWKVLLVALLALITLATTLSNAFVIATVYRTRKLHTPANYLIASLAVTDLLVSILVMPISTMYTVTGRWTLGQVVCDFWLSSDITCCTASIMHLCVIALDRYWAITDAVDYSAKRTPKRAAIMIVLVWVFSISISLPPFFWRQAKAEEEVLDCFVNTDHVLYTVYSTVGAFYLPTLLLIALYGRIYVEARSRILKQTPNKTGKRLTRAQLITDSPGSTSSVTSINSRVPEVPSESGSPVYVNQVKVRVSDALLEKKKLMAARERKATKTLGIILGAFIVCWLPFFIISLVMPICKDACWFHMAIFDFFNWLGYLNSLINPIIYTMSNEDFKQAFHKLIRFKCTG
# [11] = tested on: Rattus norvegicus; assay: The percentage production of catalepsy in rat at a dose of 58 mg/kg ip.; type: functional
# [12] = organism: Rattus norvegicus; assay: as §1; type: functional, organism-based
# [13] = organism: Rattus norvegicus; assay: The compound was measured at a dose 10 times the ED50 value for CAR block for production of catalepsy in the rat; type: functional, organism-based
# [14] = tested on: Rattus norvegicus; assay: The percentage production of catalepsy in rat at a dose of 4 mg/kg ip.; type: functional
# [15] = organism: Rattus norvegicus; assay: ED50 value for catalepsy indicates the dose required to produce a 50% of maximum catalepsy score. parentheses value indicate 95% confidence limit.; type: functional
# [16] = target: T3, Serotonin 1 (5-HT1) receptor
# Description: The binding affinity was measured on serotonin 5-hydroxytryptamine 1 receptor in rat brain tissue
# [17] = target: T2, 5-hydroxytryptamine receptor 1A; assay: biochemical
# Description: The compound was tested for its binding affinity towards 5-hydroxytryptamine 1A receptor by displacing [3H]WB-4101 radioligand in rat hippocampus
SMILES,Ki [1] [µM],Ki [6] [µM],Ki [8] [µM],ED50 [3] [mg/kg],other results
CCCCc1ccccc1N1CCN(Cc2ccc(CN3CCCC3=O)n2C)CC1,,,,> 15,
Cn1c(CN2CCN(c3ccccc3Cl)CC2)ccc1CN1CCCC1=O,0.0531,,,> 15,
Cc1ccccc1N1CCN(Cc2ccc(CN3CCCC3=O)n2C)CC1,0.136,1,,> 15,
Cn1c(CN2CCN(c3cccc(F)c3)CC2)ccc1CN1CCCC1=O,> 0.1,1,> 0.1,> 15,
O=C1CC2(CCCC2)CC(=O)N1CCCCN1CCN(c2ncccn2)CC1 [BUSPIRONE],,,,4.5,
CC(C)Oc1ccccc1N1CCN(Cc2ccc(CN3CCCCCCC3=O)n2C)CC1,0.0208,0.0181,0.26,4,Ki [5]: 0.0017 µM; ED50 [7]: > 30 mg/kg; % catalepsy at 40 mg/kg [9]: 4.2%; Ki [10]: 0.075 µM
O=C1CCCN1Cc1ccc(CN2CCN(c3ccccc3)CC2)[nH]1,,,,> 15,
Cn1c(CN2CCN(c3ccccc3)CC2)ccc1CN1CCCC1=O,0.436,,,> 15,
Cn1c(CN2CCN(c3ccccc3C#N)CC2)ccc1CN1CCCC1=O,0.0637,0.14,,> 15,
CCCCOc1ccccc1N1CCN(Cc2ccc(CN3CCCCCC3=O)n2C)CC1,0.0157,0.0589,0.237,> 15,
CC(C)c1ccccc1N1CCN(Cc2ccc(CN3CCCC3=O)n2C)CC1,0.02,0.076,0.409,5.8,
Cn1c(CN2CCN(c3cccc(C(F)(F)F)c3)CC2)ccc1CN1CCCC1=O,> 1,0.156,1,5.8,% catalepsy at 58 mg/kg [11]: 56%
CN1CCN(CCCN2c3ccccc3Sc3ccc(C(F)(F)F)cc32)CC1 [TRIFLUOPERAZINE],0.0293,> 1,,0.5,Ki [5]: 0.411 µM; ED50 [2]: 1.7 mg/kg
CC(C)c1ccccc1N1CCN(Cc2ccc(CN3CCCCCCC3=O)n2C)CC1,0.0359,0.0502,0.196,> 15,
Cc1nc2n(c(=O)c1CCN1CCC(c3noc4cc(F)ccc34)CC1)CCCC2 [RISPERIDONE],,,,,ED50 [12]: 3.5 mg/kg; ED50 [13]: 0.32 mg/kg; % catalepsy at 4 mg/kg [14]: 50%; ED50 [7]: 2.2 mg/kg
CN(C)CCCN1c2ccccc2Sc2ccc(Cl)cc21 [CHLORPROMAZINE],,,,1.9,ED50 [15]: 9.4 mg/kg; Ki [16]: > 1 µM; Ki [17]: 0.179 µM
O=C(CCCN1CCC(O)(c2ccc(Cl)cc2)CC1)c1ccc(F)cc1 [HALOPERIDOL],,,,,ED50 [15]: 0.36 mg/kg
CCCc1ccccc1N1CCN(Cc2ccc(CN3CCCC3=O)n2C)CC1,0.0266,0.283,0.317,> 30,

# Further lines, with some results ahead:
Ki [1] [µM],Ki [6] [µM],Ki [8] [µM],SMILES,ED50 [3] [mg/kg],other results
> 1,,,CCN1CCC[C@H]1CNC(=O)c1cc(S(N)(=O)=O)ccc1OC [LEVOSULPIRIDE],> 40,ED50 [2]: > 40 mg/kg
0.0449,0.185,> 1,COc1ccccc1N1CCN(Cc2ccc(CN3CCCC3=O)n2C)CC1,2.1,% catalepsy at 25 mg/kg [4]: 31%; Ki [5]: 0.0172 µM; ED50 [7]: > 20 mg/kg
0.0052,0.0331,0.0553,CC(C)Oc1ccccc1N1CCN(Cc2ccc(CN3CCCCC3=O)[nH]2)CC1,4,Ki [5]: 0.0054 µM; % catalepsy at 40 mg/kg [9]: 10%
0.0231,0.041,1,COc1ccccc1N1CCN(Cc2ccc(CN3CCCCCCC3=O)n2C)CC1,8.2,% catalepsy at 25 mg/kg [4]: 16.3%; ED50 [7]: > 27 mg/kg
,,0.669,Cn1c(CN2CCN(c3cccc([N+](=O)[O-])c3)CC2)ccc1CN1CCCCC1=O,> 15,
0.0113,0.0273,0.355,CCc1ccccc1N1CCN(Cc2ccc(CN3CCCCC3=O)n2C)CC1,> 15,Ki [5]: 0.03 µM; Ki [10]: 0.1 µM
0.1,,,COc1ccccc1N1CCN(Cc2ccc(CN3CCCC3=O)n2-c2ccccc2)CC1,> 15,
> 0.1,> 1,> 0.1,Cn1c(CN2CCN(c3cccc([N+](=O)[O-])c3)CC2)ccc1CN1CCCC1=O,15,
1,> 1,,COc1cccc(N2CCN(Cc3ccc(CN4CCCC4=O)n3C)CC2)c1,> 7.5,
0.166,0.139,,COc1ccccc1N1CCN(Cc2ccc(CN3CCCCC3=O)n2C)CC1,2.3,% catalepsy at 25 mg/kg [4]: 39.8%; ED50 [7]: 9.7 mg/kg
0.0382,0.304,0.227,CCc1ccccc1N1CCN(Cc2ccc(CN3CCCC3=O)n2C)CC1,15,
0.14,,,Cn1c(CN2CCN(c3ccccc3O)CC2)ccc1CN1CCCC1=O,> 15,
0.264,0.196,0.256,Cn1c(CN2CCN(c3cccc(Cl)c3)CC2)ccc1CN1CCCC1=O,12.3,
0.0431,0.148,1,COc1ccccc1N1CCN(Cc2ccc(CN3CCCC3=O)[nH]2)CC1,> 15,
0.0437,0.12,0.669,COc1ccccc1N1CCN(Cc2ccc(CN3CCCCCC3=O)n2C)CC1,2.1,% catalepsy at 25 mg/kg [4]: 51%; ED50 [7]: 30.5 mg/kg

# Source: ChEMBL document CHEMBL1126154, “Pyrrole mannich bases as potential antipsychotic agents” (J Med Chem, 1992)
